Calls of active or inactive are those of the source. The calls are words filed in the database; no cut-off is given here.
Key:
[1] = system: K562; assay: Cytotoxicity against human K562 cells at 100 uM after 24 hrs by trypan blue exclusion test; type: functional, cell-based
[2] = system: K562; assay: Inhibition of TNFalpha-induced NF-kappa-B transcriptional activity in human K562 cells pretreated with compound at 100 uM for 2 hrs measured 6 hrs post TNFalpha challenge by luciferase reporter gene assay; type: cell-based
[3] = (§1) Inhibition of TNFalpha-induced NF-kappa-B transcriptional activity in human K562 cells pretreated with compound for 2 hrs measured 6 hrs post TNFalpha challenge by luciferase reporter gene assay; type: cell-based
[4] = system: K562; assay: as §1; type: cell-based
[5] = system: K562; assay: Cytotoxicity against human K562 cells after 48 hrs by trypan blue exclusion test; type: functional, cell-based; conditions: K562, 48 h
[6] = system: K562; assay: Cytotoxicity against human K562 cells after 24 hrs by trypan blue exclusion test; type: functional, cell-based; conditions: K562, 24 h
[7] = system: K562; assay: Cytotoxicity against human K562 cells at 0.5 to 100 uM after 8 to 72 hrs by trypan blue exclusion test; type: functional, cell-based
[8] = system: A549; assay: Antimigratory activity against human A549 cells treated at 25 uM after scratching measured at 6 hrs interval over 120 hrs by scratch-wound assay; type: functional, cell-based
[9] = system: A549; assay: Antiproliferative activity against human A549 cells measured at 6 hrs over 120 hrs by videomicroscopy analysis; type: functional, cell-based
[10] = system: K562; assay: Antiproliferative activity against human K562 cells measured at 6 hrs over 120 hrs by videomicroscopy analysis; type: functional, cell-based
[11] = system: K562; assay: Induction of apoptosis in human K562 cells assessed as reduction in Bcl-xL expression after 16 to 72 hrs by Western blot analysis; type: functional, cell-based
[12] = system: K562; assay: Induction of apoptosis in human K562 cells assessed as reduction in XIAP expression after 16 to 72 hrs by Western blot analysis; type: functional, cell-based
[13] = system: K562; assay: Induction of apoptosis in human K562 cells assessed as cleavage of caspase-9 after 16 to 24 hrs by Western blot analysis; type: functional, cell-based
[14] = system: K562; assay: Induction of apoptosis in human K562 cells assessed as reduction in Mcl-1 expression after 16 to 72 hrs by Western blot analysis; type: functional, cell-based
[15] = system: K562; assay: Induction of apoptosis in human K562 cells assessed as cleavage of caspase-3 after 16 to 24 hrs by Western blot analysis; type: functional, cell-based
[16] = system: K562; assay: Induction of apoptosis in human K562 cells after 16 to 72 hrs using annexin V-propidium iodide staining by FACS analysis; type: functional, cell-based
[17] = system: K562; assay: Cell cycle arrest in human K562 cells assessed as accumulation at sub-G1 phase at 4 uM after 72 hrs by flow cytometry relative to untreated control; type: functional
[18] = system: K562; assay: Cell cycle arrest in human K562 cells assessed as accumulation at sub-G1 phase at 4 uM after 48 hrs by flow cytometry relative to untreated control; type: functional
[19] = system: K562; assay: Cell cycle arrest in human K562 cells assessed as accumulation at sub-G1 phase after 16 hrs by flow cytometry relative to untreated control; type: functional
[20] = system: K562; assay: Cell cycle arrest in human K562 cells assessed as accumulation at sub-G1 phase after 24 hrs by flow cytometry relative to untreated control; type: functional
[21] = system: K562; assay: Cell cycle arrest in human K562 cells assessed as accumulation at sub-G1 phase after 16 to 72 hrs by flow cytometry; type: functional, cell-based
[22] = system: K562; assay: Cell cycle arrest in human K562 cells assessed as accumulation at sub-G1 phase at 0.2 to 10 uM by flow cytometry; type: functional, cell-based; conditions: TDE = time-dependent effect
[23] = system: A549; assay: Cytotoxicity against human A549 cells after 24 hrs by XTT assay; type: functional, cell-based; conditions: A549, 24 h
[24] = system: PBMC; assay: Cytotoxicity against human PBMCs after 24 hrs by trypan blue exclusion test; type: cell-based
[25] = system: PBMC; assay: Effect on metabolism of human PBMCs after 24 hrs by CellTiter-Glo luminescent cell viability assay; type: functional, cell-based

COc1cc(O)c2c(c1)[C@H](O)[C@H]1C[C@](C)(O)[C@H](O)C[C@@H]1C2=O
Activity [1]: inactive
inhibition [2]: inactive

COc1cc(O)c2c(c1)[C@H](O)[C@@H]1[C@@H](C2=O)[C@H](O)[C@@H](O)[C@@](C)(O)[C@@H]1O
Activity [1]: inactive
inhibition [2]: inactive

COc1cc(OC(C)=O)c2c(c1)C(=O)C1=C(C2=O)[C@H](OC(C)=O)[C@@H](OC(C)=O)[C@@](C)(O)[C@@H]1OC(C)=O
IC50 [3]: 4.64 µM
inhibition [4]: Dose-dependent effect
EC50 [5]: 2.5 µM
EC50 [6]: 4 µM
Activity [7]: Active

COc1cc(O)c2c(c1)C(=O)C1=C(C2=O)[C@H](O)[C@@H](O)[C@@](C)(O)[C@@H]1O [ALTERSOLANOL A]
Activity [8]: Active
EC50 [9]: > 2 µM
EC50 [10]: > 1 µM
IC50 [3]: 0.8 µM
inhibition [4]: Dose-dependent effect
Activity [11]: Dose-dependent effect
Activity [12]: Dose-dependent effect
Activity [13]: Dose-dependent effect
Activity [14]: Dose-dependent effect
Activity [15]: Dose-dependent effect
Activity [16]: Dose-dependent effect
Activity [17]: 65%
Activity [18]: 65%
Activity [19]: 40%
Activity [20]: 40%
Activity [21]: Dose-dependent effect
Activity [22]: tde
EC50 [23]: 29.5 µM
Activity [24]: Non-toxic
EC50 [25]: 4.2 µM
EC50 [5]: 2.5 µM
EC50 [6]: 4 µM
Activity [7]: Active
